Test results from the NIST ThermoML archive (doi:10.1016/j.jct.2010.12.007).

Tests used:
[1] = Crystal; for vapor or sublimation pressure: Transpiration method; for Normal melting temperature: DTA
[2] = Molar enthalpy of transition or fusion; details: Crystal; DSC

N#Cc1ccc(NS(=O)(=O)c2ccc(N)cc2)cc1 [4-amino-N-(4-cyanophenyl)benzenesulfonamide]
[1]
Details | vapor or sublimation pressure [kPa]
420.15 K | 6.74e-06
420.95 K | 7.23e-06
421.35 K | 7.91e-06
424.75 K | 1.13e-05
426.55 K | 1.36e-05
428.35 K | 1.66e-05
429.65 K | 1.94e-05
431.35 K | 2.11e-05
431.75 K | 2.28e-05
432.35 K | 2.33e-05
433.05 K | 2.63e-05
434.75 K | 3.17e-05
435.75 K | 3.58e-05
437.15 K | 4.24e-05
437.55 K | 4.37e-05

Details | Molar enthalpy of transition or fusion [kcal/mol] | Normal melting temperature [°C]
[1] | – | 178.4
[2] | 7.39 | –

Nc1ccc(S(=O)(=O)Nc2ccc([N+](=O)[O-])cc2)cc1 [4-amino-N-(4-nitrophenyl)benzenesulfonamide]
[1]
Details | vapor or sublimation pressure [kPa]
405.55 K | 1.5e-06
409.45 K | 2.18e-06
412.85 K | 2.3e-06
415.15 K | 3.41e-06
417.25 K | 4.01e-06
418.75 K | 4.34e-06
420.05 K | 5.46e-06
421.55 K | 5.63e-06
423.25 K | 6.16e-06
424.65 K | 7.3e-06
426.25 K | 8.92e-06
428.75 K | 1.05e-05
431.35 K | 1.28e-05
432.05 K | 1.41e-05
435.15 K | 1.81e-05
438.25 K | 2.28e-05

Details | Molar enthalpy of transition or fusion [kcal/mol] | Normal melting temperature [°C]
[1] | – | 165.8
[2] | 6.67 | –

O=[N+]([O-])c1ccc(NS(=O)(=O)c2ccccc2)cc1 [N-(4-nitrophenyl)benzenesulfonamide]
[1]
Details | vapor or sublimation pressure [kPa]
380.15 K | 9.47e-06
384.15 K | 1.55e-05
385.15 K | 1.72e-05
387.15 K | 2.09e-05
390.15 K | 2.84e-05
391.15 K | 3.17e-05
392.15 K | 3.47e-05
393.15 K | 3.88e-05
394.15 K | 4.04e-05
395.15 K | 4.64e-05
396.65 K | 5.13e-05
401.15 K | 8.37e-05
401.65 K | 8.63e-05

Details | Molar enthalpy of transition or fusion [kcal/mol] | Normal melting temperature [°C]
[1] | – | 138.2
[2] | 6.86 | –
